Measurements from publication PMC5408584 (Lipids, 2016).

Key:
rat FABP1 [1] = molecular target: T1, rat FABP1 (Rattus norvegicus, UniProt P02692); settings: read-out: Ki, displacement of FABP1-bound cis-parinaroyl-CoA; rat FABP1, mean ± SE n=3, Fig 1A; cited from earlier work
T1 sequence (P02692 1-127): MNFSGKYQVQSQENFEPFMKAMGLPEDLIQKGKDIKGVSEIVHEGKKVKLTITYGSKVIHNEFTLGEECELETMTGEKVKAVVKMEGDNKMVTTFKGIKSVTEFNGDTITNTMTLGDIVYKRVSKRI

human WT FABP1 [2] = molecular target: T2, human WT FABP1 (Homo sapiens, UniProt P07148); test: DAUDA fluorescent ligand displacement assay, human FABP1; assay type: binding; settings: AEA 0–6μM, Fig 1B
T2 sequence (P07148 1-127): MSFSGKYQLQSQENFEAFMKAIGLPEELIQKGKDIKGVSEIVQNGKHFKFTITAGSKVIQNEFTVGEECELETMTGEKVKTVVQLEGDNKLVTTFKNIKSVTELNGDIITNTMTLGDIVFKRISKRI

human WT FABP1 [3] = molecular target: T2, human WT FABP1; test: cis-parinaroyl-CoA fluorescent ligand displacement assay, human FABP1; assay type: binding; settings: AEA 0–6μM, Fig 1B
human FABP1 [4] = settings: read-out: Ki (printed Kids), ANS displacement; cited from earlier work
L-cells = test: Cellular uptake of NBD-labeled probes by confocal imaging; assay type: cell-based, murine; settings: Fig 3B
rat FABP1 [5] = molecular target: T1, rat FABP1; settings: cited from earlier work; for number of ligand molecules bound per FABP1 (binding sites): rat FABP1, fractional saturation curves, Fig 2B; for Kd: read-out: Kd, direct binding of NBD-labeled ligand, rat FABP1, mean ± SE n=3, Fig 2B
human FABP1 [6] = settings: cited from earlier work
human FABP1 T94A variant = settings: T94A variant vs WT human FABP1; cited from earlier work

Compound: CCCCC/C=C\C/C=C\C/C=C\C/C=C\CCCC(=O)OC(CO)CO [2-AG, 2-arachidonoylglycerol]
- Ki (rat FABP1 [1]): 205 ± 3 nM

Compound: CCCCC/C=C\C/C=C\C/C=C\C/C=C\CCCC(=O)NCCO [AEA, N-arachidonoylethanolamide]
- displacement of human FABP1 bound DAUDA (human WT FABP1 [2]): did displace
- Ki (rat FABP1 [1]): 400 ± 20 nM
- displacement of human FABP1 bound cis-parinaroyl CoA (human WT FABP1 [3]): did not displace

Compound: CCCCC/C=C\C/C=C\C/C=C\C/C=C\CCCC(=O)O [ARA, arachidonic acid]
- Ki (human FABP1 [4]): 113 ± 6 nM

Compound: O=C(CCC/C=C\C/C=C\C/C=C\C/C=C\CCCCCNc1ccc([N+](=O)[O-])c2nonc12)OC(CO)CO [NBD-2-AG]
- maximal uptake, fold higher than that of NBD-ARA (L-cells): at least 1.6 fold
- number of ligand molecules bound per FABP1 (binding sites) (rat FABP1 [5]): single
- Kd (rat FABP1 [5]): 250 ± 50 nM

Compound: O=C(CCC/C=C\C/C=C\C/C=C\C/C=C\CCCCCNc1ccc([N+](=O)[O-])c2nonc12)NCCO [NBD-AEA, 20-[(7-nitro-2-1,3-benzoxadiazol-4-yl)amino] arachidonoylethanolamide]
- maximal uptake, fold higher than that of NBD-ARA (L-cells): at least 1.6 fold
- number of ligand molecules bound per FABP1 (binding sites) (rat FABP1 [5]): single
- Kd (rat FABP1 [5]): 800 ± 200 nM

Compound: O=C(O)CCC/C=C\C/C=C\C/C=C\C/C=C\CCCCCNc1ccc([N+](=O)[O-])c2nonc12 [NBD-ARA, 20-[(7-nitro-2-1,3-benzoxadiazol-4-yl)amino] arachidonic acid]
- number of ligand molecules bound per FABP1 (binding sites) (rat FABP1 [5]): two
- Kd (rat FABP1 [5]): 660 ± 60 nM

Compound: CC(C)CCC[C@@H](C)[C@H]1CC[C@H]2[C@@H]3CC=C4C[C@@H](O)CC[C@]4(C)[C@H]3CC[C@]12C [cholesterol]
- fold weaker affinity of human FABP1 compared to rat FABP1 (human FABP1 [6]; human vs rat FABP1): 3.5 fold
- fold increase in affinity of human FABP1 by T94A substitution (human FABP1 T94A variant): 3 fold

Compound: CCCCCCCC/C=C\CCCCCCCC(=O)SCCNC(=O)CCNC(=O)[C@H](O)C(C)(C)COP(=O)(O)OP(=O)(O)OC[C@H]1O[C@@H](n2cnc3c(N)ncnc32)[C@H](O)[C@@H]1OP(=O)(O)O [oleoyl-CoA]
- fold higher affinity of human FABP1 compared to rat FABP1 (human FABP1 [6]; human vs rat FABP1 within the same study): 2.2 fold
